These results are taken from ChEMBL document CHEMBL1131144, “N-Substituted 9beta-methyl-5-(3-hydroxyphenyl)morphans are opioid receptor pure antagonists” (J Med Chem, 1998).

For assay [1], the target named is Kappa-type opioid receptor (Homo sapiens, UniProt P41145). Nature of the assay: Binding affinity against Opioid receptor kappa 1 using [3H]ethylketocyclazocine as radioligand.
Assay [2] addresses Mu-type opioid receptor (Homo sapiens, UniProt P35372). The experiment in a line: Binding affinity against Opioid receptor mu 1 using [3H]naloxone as radioligand.
For assay [3], the target named is Mu-type opioid receptor (Cavia porcellus, UniProt P97266). The experiment in a line: Inhibition of [35S]GTP-gamma-S, binding in guinea pig caudate stimulated by DAMGO (Opioid receptor mu 1). The format is functional.
Sequence of Mu-type opioid receptor (Cavia porcellus, UniProt P97266) (P97266 whole entry): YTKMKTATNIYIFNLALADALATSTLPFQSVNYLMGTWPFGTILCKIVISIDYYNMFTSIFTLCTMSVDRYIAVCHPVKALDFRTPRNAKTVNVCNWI
Assay [4] addresses T1, Kappa-type opioid receptor (Cavia porcellus, UniProt P41144). The experiment in a line: Binding activity against kOpioid receptor kappa 1 using [3H]U-69593 as radioligand in guinea pig membranes. The assay is classed as cell membranes.
Assay [5] addresses T1, Kappa-type opioid receptor. Nature of the assay: Inhibition of [35S]GTP-gamma-S, binding in guinea pig caudate stimulated by U69,593 in Opioid receptor kappa 1. The assay is classed as functional. Background: GTPγS is a poorly hydrolysed GTP analogue; its binding reports G protein activation.
Assay [6] addresses Mu-type opioid receptor (Rattus norvegicus, UniProt P33535). Nature of the assay: Binding activity against Opioid receptor mu 1 using [3H]DAMGO as radioligand in rat brain membranes. The assay is classed as cell membranes.
For assay [7], the target named is Delta-type opioid receptor (Rattus norvegicus, UniProt P33533). Nature of the assay: Binding activity against Opioid receptor delta 1 using [3H]DADLE as radioligand in rat brain membranes. The assay is classed as cell membranes.
Sequence of Delta-type opioid receptor (P33533 whole entry): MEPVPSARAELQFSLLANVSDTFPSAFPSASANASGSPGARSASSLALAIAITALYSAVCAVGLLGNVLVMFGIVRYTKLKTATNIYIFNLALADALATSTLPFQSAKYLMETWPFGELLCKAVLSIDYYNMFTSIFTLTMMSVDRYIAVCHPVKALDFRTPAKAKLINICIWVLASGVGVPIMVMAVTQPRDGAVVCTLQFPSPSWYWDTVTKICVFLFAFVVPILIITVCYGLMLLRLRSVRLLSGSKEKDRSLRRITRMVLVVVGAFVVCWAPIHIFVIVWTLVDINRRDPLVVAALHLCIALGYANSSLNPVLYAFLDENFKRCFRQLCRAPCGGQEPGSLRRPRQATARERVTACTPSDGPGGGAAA
Assay [8] concerns the target T1, Kappa-type opioid receptor. Nature of the assay: Binding activity against Opioid receptor kappa 1 using [3H]U-69593 as radioligand in guinea pig membranes. The format is cell membranes.

Each structure is given as a SMILES string.

T1 sequence (P41144 whole entry): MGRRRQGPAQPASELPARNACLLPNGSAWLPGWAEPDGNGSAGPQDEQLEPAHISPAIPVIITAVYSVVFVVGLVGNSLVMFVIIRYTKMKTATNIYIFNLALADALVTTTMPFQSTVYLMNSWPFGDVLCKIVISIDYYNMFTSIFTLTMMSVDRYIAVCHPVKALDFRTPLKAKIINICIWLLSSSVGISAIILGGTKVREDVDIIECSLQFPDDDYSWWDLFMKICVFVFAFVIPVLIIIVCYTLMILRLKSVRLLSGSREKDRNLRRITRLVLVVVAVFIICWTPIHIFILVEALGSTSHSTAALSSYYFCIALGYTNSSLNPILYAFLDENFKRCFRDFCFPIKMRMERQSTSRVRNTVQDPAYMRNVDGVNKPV
Sequence of Mu-type opioid receptor (Rattus norvegicus, UniProt P33535) (P33535 whole entry): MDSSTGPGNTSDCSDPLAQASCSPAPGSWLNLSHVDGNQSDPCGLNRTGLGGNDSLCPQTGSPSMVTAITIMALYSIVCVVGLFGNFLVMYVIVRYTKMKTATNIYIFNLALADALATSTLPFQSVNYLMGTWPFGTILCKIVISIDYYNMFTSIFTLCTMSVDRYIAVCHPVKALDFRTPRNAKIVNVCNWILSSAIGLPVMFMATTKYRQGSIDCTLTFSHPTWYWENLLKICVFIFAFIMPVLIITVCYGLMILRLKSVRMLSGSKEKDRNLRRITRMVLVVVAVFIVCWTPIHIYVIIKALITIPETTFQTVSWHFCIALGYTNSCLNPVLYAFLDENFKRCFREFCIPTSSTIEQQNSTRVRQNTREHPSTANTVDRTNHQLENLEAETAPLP
Sequence of Mu-type opioid receptor (Homo sapiens, UniProt P35372) (P35372 whole entry): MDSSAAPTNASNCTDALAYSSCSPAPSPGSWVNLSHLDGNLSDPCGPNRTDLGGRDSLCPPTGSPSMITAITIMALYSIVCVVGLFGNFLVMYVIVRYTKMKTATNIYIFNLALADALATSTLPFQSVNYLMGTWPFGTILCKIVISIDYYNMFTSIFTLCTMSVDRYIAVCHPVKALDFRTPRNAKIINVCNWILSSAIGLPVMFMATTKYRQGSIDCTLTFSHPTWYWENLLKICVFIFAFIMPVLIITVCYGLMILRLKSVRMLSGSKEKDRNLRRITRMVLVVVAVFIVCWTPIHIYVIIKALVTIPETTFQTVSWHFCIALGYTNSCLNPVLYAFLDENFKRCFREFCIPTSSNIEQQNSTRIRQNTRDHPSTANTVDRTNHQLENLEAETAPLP
Sequence of Kappa-type opioid receptor (Homo sapiens, UniProt P41145) (P41145 whole entry): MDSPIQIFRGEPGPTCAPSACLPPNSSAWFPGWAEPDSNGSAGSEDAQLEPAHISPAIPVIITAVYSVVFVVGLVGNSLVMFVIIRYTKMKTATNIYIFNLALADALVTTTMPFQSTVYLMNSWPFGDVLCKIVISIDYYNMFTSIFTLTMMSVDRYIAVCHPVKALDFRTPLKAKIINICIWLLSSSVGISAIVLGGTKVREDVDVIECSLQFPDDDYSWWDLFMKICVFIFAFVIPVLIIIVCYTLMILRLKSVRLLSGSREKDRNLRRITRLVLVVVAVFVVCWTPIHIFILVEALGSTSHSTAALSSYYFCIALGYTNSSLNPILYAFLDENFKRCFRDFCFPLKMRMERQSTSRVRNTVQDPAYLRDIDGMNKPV

Take `C[C@H]1CN(C)CC[C@@]1(C)c1cccc(O)c1`: the figures for the Ki (in assay [1]; on Mu-type opioid receptor [2]) were 833 nM and 80 nM, respectively.

As for `C[C@H]1C2CCCC1(c1cccc(O)c1)CCN2CCc1ccccc1` (some centres not stated), the Ki (usually the dissociation constant of the complex between target and ligand, obtained from inhibition or displacement) was 0.338 nM at Mu-type opioid receptor [3]; 14.5 nM in assay [4]; 1.34 nM in assay [5]; 3.11 nM at Mu-type opioid receptor [6]; 272 nM in assay [7].

Regarding `C[C@H]1C2CCCC1(c1cccc(O)c1)CCN2C` (some centres not stated), the Ki on Mu-type opioid receptor [3] was 21.3 nM; in assay [5] it was 105 nM; in assay [8], 816 nM; at Mu-type opioid receptor [6] it was 166 nM; in assay [7], > 10000 nM.
